Experimental data reported in the NIST ThermoML archive (doi:10.1016/j.jct.2015.01.004).
“And” between values parts separate entries of the source, which are not always exact repeats. Identical values can stand only once. ± gives the expanded uncertainty stated by the source.

Assay: molar heat capacity at constant pressure; xn = mol fraction of the nth substance listed
Details: 100 kPa

## [Si] [silicon] + [Li]
354.46 K, Crystal of intercomponent compound 1, Small sample (50 mg) DSC, x2 = 0.81
  molar heat capacity at constant pressure: 23.72 ± 0.58 J/K/mol
360 K, Crystal of intercomponent compound 1, relaxation calorimetry + DSC, x2 = 0.81
  molar heat capacity at constant pressure: 23.91 ± 0.97 J/K/mol
360 K, Crystal of intercomponent compound 2, relaxation calorimetry + DSC, x2 = 0.804
  molar heat capacity at constant pressure: 24.08 ± 0.98 J/K/mol
364.16 K, Crystal of intercomponent compound 2, Small sample (50 mg) DSC, x2 = 0.804
  molar heat capacity at constant pressure: 24.81 ± 0.61 J/K/mol and 24.83 ± 0.61 J/K/mol
364.17 K, Crystal of intercomponent compound 1, Small sample (50 mg) DSC, x2 = 0.81
  molar heat capacity at constant pressure: 24.15 ± 0.59 J/K/mol and 24.13 ± 0.59 J/K/mol
364.17 K, Crystal of intercomponent compound 2, Small sample (50 mg) DSC, x2 = 0.804
  molar heat capacity at constant pressure: 24.69 ± 0.6 J/K/mol
364.36 K, Crystal of intercomponent compound 1, Small sample (50 mg) DSC, x2 = 0.81
  molar heat capacity at constant pressure: 24.02 ± 0.59 J/K/mol
364.37 K, Crystal of intercomponent compound 1, Small sample (50 mg) DSC, x2 = 0.81
  molar heat capacity at constant pressure: 23.91 ± 0.59 J/K/mol
374.07 K, Crystal of intercomponent compound 2, Small sample (50 mg) DSC, x2 = 0.804
  molar heat capacity at constant pressure: 24.83 ± 0.61 J/K/mol and 24.87 ± 0.61 J/K/mol and 24.94 ± 0.61 J/K/mol
374.08 K, Crystal of intercomponent compound 1, Small sample (50 mg) DSC, x2 = 0.81
  molar heat capacity at constant pressure: 24.33 ± 0.6 J/K/mol and 24.27 ± 0.59 J/K/mol
374.28 K, Crystal of intercomponent compound 1, Small sample (50 mg) DSC, x2 = 0.81
  molar heat capacity at constant pressure: 24.24 ± 0.59 J/K/mol and 24.13 ± 0.59 J/K/mol
380 K, Crystal of intercomponent compound 1, relaxation calorimetry + DSC, x2 = 0.81
  molar heat capacity at constant pressure: 24.29 ± 0.99 J/K/mol
380 K, Crystal of intercomponent compound 2, relaxation calorimetry + DSC, x2 = 0.804
  molar heat capacity at constant pressure: 24.51 ± 1 J/K/mol
383.99 K, Crystal of intercomponent compound 2, Small sample (50 mg) DSC, x2 = 0.804
  molar heat capacity at constant pressure: 25.05 ± 0.61 J/K/mol
384.19 K, Crystal of intercomponent compound 1, Small sample (50 mg) DSC, x2 = 0.81
  molar heat capacity at constant pressure: 24.35 ± 0.6 J/K/mol
384.2 K, Crystal of intercomponent compound 1, Small sample (50 mg) DSC, x2 = 0.81
  molar heat capacity at constant pressure: 24.46 ± 0.6 J/K/mol
393.9 K, Crystal of intercomponent compound 2, Small sample (50 mg) DSC, x2 = 0.804
  molar heat capacity at constant pressure: 25.16 ± 0.62 J/K/mol and 25.27 ± 0.62 J/K/mol
394.11 K, Crystal of intercomponent compound 1, Small sample (50 mg) DSC, x2 = 0.81
  molar heat capacity at constant pressure: 24.46 ± 0.6 J/K/mol
394.12 K, Crystal of intercomponent compound 1, Small sample (50 mg) DSC, x2 = 0.81
  molar heat capacity at constant pressure: 24.68 ± 0.6 J/K/mol
400 K, Crystal of intercomponent compound 1, relaxation calorimetry + DSC, x2 = 0.81
  molar heat capacity at constant pressure: 24.63 ± 1 J/K/mol
400 K, Crystal of intercomponent compound 2, relaxation calorimetry + DSC, x2 = 0.804
  molar heat capacity at constant pressure: 24.94 ± 1 J/K/mol
403.81 K, Crystal of intercomponent compound 2, Small sample (50 mg) DSC, x2 = 0.804
  molar heat capacity at constant pressure: 25.3 ± 0.62 J/K/mol and 25.35 ± 0.62 J/K/mol
404.02 K, Crystal of intercomponent compound 1, Small sample (50 mg) DSC, x2 = 0.81
  molar heat capacity at constant pressure: 24.57 ± 0.6 J/K/mol
404.03 K, Crystal of intercomponent compound 1, Small sample (50 mg) DSC, x2 = 0.81
  molar heat capacity at constant pressure: 25.01 ± 0.61 J/K/mol
413.73 K, Crystal of intercomponent compound 2, Small sample (50 mg) DSC, x2 = 0.804
  molar heat capacity at constant pressure: 25.46 ± 0.62 J/K/mol and 25.49 ± 0.62 J/K/mol
413.94 K, Crystal of intercomponent compound 1, Small sample (50 mg) DSC, x2 = 0.81
  molar heat capacity at constant pressure: 24.68 ± 0.6 J/K/mol and 25.12 ± 0.62 J/K/mol
420 K, Crystal of intercomponent compound 1, relaxation calorimetry + DSC, x2 = 0.81
  molar heat capacity at constant pressure: 24.96 ± 1 J/K/mol
420 K, Crystal of intercomponent compound 2, relaxation calorimetry + DSC, x2 = 0.804
  molar heat capacity at constant pressure: 25.37 ± 1 J/K/mol
423.64 K, Crystal of intercomponent compound 2, Small sample (50 mg) DSC, x2 = 0.804
  molar heat capacity at constant pressure: 25.57 ± 0.63 J/K/mol and 25.65 ± 0.63 J/K/mol
423.85 K, Crystal of intercomponent compound 1, Small sample (50 mg) DSC, x2 = 0.81
  molar heat capacity at constant pressure: 24.68 ± 0.6 J/K/mol
423.86 K, Crystal of intercomponent compound 1, Small sample (50 mg) DSC, x2 = 0.81
  molar heat capacity at constant pressure: 25.12 ± 0.62 J/K/mol
433.56 K, Crystal of intercomponent compound 2, Small sample (50 mg) DSC, x2 = 0.804
  molar heat capacity at constant pressure: 25.68 ± 0.63 J/K/mol and 25.75 ± 0.63 J/K/mol
433.76 K, Crystal of intercomponent compound 1, Small sample (50 mg) DSC, x2 = 0.81
  molar heat capacity at constant pressure: 25.01 ± 0.61 J/K/mol
433.77 K, Crystal of intercomponent compound 1, Small sample (50 mg) DSC, x2 = 0.81
  molar heat capacity at constant pressure: 25.23 ± 0.62 J/K/mol
440 K, Crystal of intercomponent compound 1, relaxation calorimetry + DSC, x2 = 0.81
  molar heat capacity at constant pressure: 25.28 ± 1 J/K/mol
440 K, Crystal of intercomponent compound 2, relaxation calorimetry + DSC, x2 = 0.804
  molar heat capacity at constant pressure: 25.8 ± 1.1 J/K/mol
443.48 K, Crystal of intercomponent compound 2, Small sample (50 mg) DSC, x2 = 0.804
  molar heat capacity at constant pressure: 25.83 ± 0.63 J/K/mol and 25.95 ± 0.64 J/K/mol
443.67 K, Crystal of intercomponent compound 1, Small sample (50 mg) DSC, x2 = 0.81
  molar heat capacity at constant pressure: 25.01 ± 0.61 J/K/mol
443.69 K, Crystal of intercomponent compound 1, Small sample (50 mg) DSC, x2 = 0.81
  molar heat capacity at constant pressure: 25.56 ± 0.63 J/K/mol
453.39 K, Crystal of intercomponent compound 2, Small sample (50 mg) DSC, x2 = 0.804
  molar heat capacity at constant pressure: 25.96 ± 0.64 J/K/mol and 26.21 ± 0.64 J/K/mol
453.59 K, Crystal of intercomponent compound 1, Small sample (50 mg) DSC, x2 = 0.81
  molar heat capacity at constant pressure: 25.01 ± 0.61 J/K/mol
